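Protocol summary: plate cells (96-well), add compound at 5 concentrations, incubate 48 h, interpolate endpoints linearly. GI50: concentration for 50% inhibition of growth.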 Activity calls are given as the source filed them. No stated cut-off is given here; in the data, active = GI50 up to about 1.1 µM and inactive = higher. *1 amine or outer side, *2 acyl side, *3 side chain or, on linkers, in order; H or OH if unused. Where a SMILES comes first, the peptide text is derived from it. Bridges are numbered along the chain shown (N, C = ends). Roman numbers before positions name the chains, in order. [ ]: non-standard residue; d: D form. Actinocin(1to9) = Cc1c2oc3c(C)ccc(C(=O)[*:2])c3nc-2c(C(=O)[*:1])c(N)c1=O; NMeV = CN[CH](C(=O)O)C(C)C; Sar = CNCC(=O)O Some results are limits rather than exact numbers.

Among the test systems are T47D; LXFL 529; DMS-114; HOP-18; SNB-78; DMS-273; DLD-1; XF498; RXF 631.
Common to all, as to assay: NCI-60 cell line screen, 48 h

On to `N#CC1(O)CCCCCCCCCCC1`, for which, in the assay with T47D, the GI50 was > 100 µM (inactive).
Regarding `O=C(O)C1C(C(=O)Nc2ccc3c(c2)Cc2ccccc2-3)C2(Cl)C(Cl)=C(Cl)C1(Cl)C2(Cl)Cl` (centres undefined), the GI50 in the assay on T47D was 32.1 µM (inactive).
As for `CCOC(=O)[C@@H]1ON2O[C@H](OC3CCCCC3c3ccccc3)C[C@H]3OC(=O)[C@@H]1C32` (some centres undefined), the GI50 in the assay on T47D is > 100 µM (inactive).
Turning to `[N-]=[N+]=NC(CBr)c1cn([C@H]2C[C@H](O)[C@@H](CO)O2)c(=O)[nH]c1=O` (some centres undefined), the GI50 in the assay on LXFL 529 is > 100 µM (inactive); in the assay with DMS-114 it was > 100 µM (inactive); with HOP-18, 1.99 µM (inactive); in the assay with SNB-78, > 100 µM (inactive); in the assay with DMS-273, > 100 µM (inactive); in the assay with DLD-1, > 100 µM (inactive).
Turning to `Nc1ccc2c(c1)C(=O)N1CCC[C@H]1C(=O)N2`, in the assay with T47D, the GI50 was > 100 µM (inactive).
With `Nc1ncnc2c1ncn2C1OC(CSCC(F)(F)F)C(O)C1O` (centres undefined), the GI50 with LXFL 529, in the assay with XF498, with HOP-18, in the assay with SNB-78, with DMS-273 and with DLD-1 was > 100 µM (inactive) in each case.
On to `NNC(=O)c1ccc[n+](CCc2ccccc2)c1`, for which the GI50 in the assay on T47D was > 100 µM (inactive).
Consider `Cn1nc(-c2ccccc2)c(C(=O)/C=C/c2ccc(Cl)cc2)c(N2CCOCC2)c1=O`, for which the GI50 is 4.79 µM (inactive) in the assay on RXF 631; 2.92 µM (inactive) in the assay with LXFL 529; 2.78 µM (inactive) with DMS-114; 4.48 µM (inactive) with HOP-18; 3.3 µM (inactive) in the assay on DMS-273; 2.96 µM (inactive) in the assay on DLD-1.
Consider `COC1OC(CO)C(O)C(NC(=O)N(C)N=O)C1O` (centres undefined), for which the GI50 in the assay on LXFL 529, with DMS-114, in the assay on XF498, with HOP-18, in the assay with SNB-78 and in the assay on DMS-273 was > 100 µM (inactive) throughout. For the same compound, in the assay on DLD-1, the GI50 was > 100 µM (inactive).
With `Cc1ccc(SC(=O)N2C(=S)N=C(NC3CCCCC3)C23CCCCC3)cc1`, the GI50 in the assay on T47D was 52.1 µM (inactive).
Same read-out and setting: next, `Oc1ccc([C@H]2c3c(O)cc(O)cc3C3c4c(cc(O)cc4[C@@H]2[C@H]2c4cc(O)cc5c4C(c4cc(O)cc(O)c4[C@@H]2c2ccc(O)cc2)[C@@H](c2ccc(O)cc2)O5)O[C@@H]3c2ccc(O)cc2)cc1` (some centres undefined): 0.536 µM (active).
Consider `COC(=O)c1c(O)ccc2c1c1c(n2C)C(=O)c2ccccc2C1=O`, for which the GI50 in the assay on T47D is 3.42 µM (inactive).
For `Cc1cc2c(cc1Cl)SC(c1ccccc1)C(=O)NS2(=O)=O` (centres undefined), the GI50 in the assay with T47D was 30.1 µM (inactive).
Regarding `CN(C)C(=S)/N=c1\ss/c(=N\S(=O)(=O)c2ccccc2)n1C`, the GI50 in the assay with LXFL 529, with DMS-114, in the assay on XF498, with HOP-18, in the assay with SNB-78 and in the assay on DMS-273 was > 100 µM (inactive) each time. Moreover, in the assay on DLD-1, the GI50 was > 100 µM (inactive).
Turning to `CCC(C(=O)C(=O)C(CC)P1(=O)OC(C)(C)CN1C(C)(C)C)P1(=O)OC(C)(C)CN1C(C)(C)C` (centres undefined), in the assay with T47D, the GI50 is > 100 µM (inactive).
Regarding `SC[C@@H]1COC[C@H](CS)S1`, the GI50 in the assay with T47D is > 100 µM (inactive).
For the compound `CN1C(=O)C2C3C=C4c5ccccc5N(c5ccccc5)C4(C2C1=O)[C@H]1C(=O)N(C)C(=O)[C@@H]31` (some centres undefined), the GI50 with LXFL 529 was > 100 µM (inactive); in the assay on DMS-114, 66.4 µM (inactive); in the assay with XF498, > 100 µM (inactive); with DLD-1, > 100 µM (inactive).
Consider `Cc1ccc(/N=C2\OP(=O)(Nc3ccc(C)cc3)Oc3ccccc32)cc1` (centres undefined), for which the GI50 in the assay on T47D was > 100 µM (inactive).
Same read-out and setting: next, `CN(C)/C=N/c1ccc2nonc2c1`: > 100 µM (inactive).
Same read-out and setting: next, `Cc1cccc(-c2cc(O)c3cc(C)cnc3n2)c1`: 6.5 µM (inactive).
With `CCOC(=O)N1C(c2ccccc2)C=CC(c2ccccc2)N1C(=O)OCC` (centres undefined), the GI50 in the assay on DMS-114, in the assay on XF498, in the assay with HOP-18, with SNB-78 and in the assay on DLD-1 was > 100 µM (inactive) each time.
On to `CCC(C)C1NC(=O)C(NC(=O)c2c3nc4c(C(=O)NC5C(=O)NC(C(C)C)C(=O)N6CCCC6C(=O)N(C)CC(=O)N(C)C(C(C)C)C(=O)OC5C)ccc(C)c4oc-3c(C)c(=O)c2N)C(C)OC(=O)C(C(C)C)N(C)C(=O)CN(C)C(=O)C2CCCN2C1=O` (centres undefined) (I: TIP[Sar][NMeV] / II: TVP[Sar][NMeV]; ester I:1-I:C, II:1-II:C; linker I:N-II:N via Actinocin(1to9); configuration not given here), for which the GI50 in the assay on T47D is 0.00183 µM (active).
For the compound `CC(=O)OCC1OC(n2c(C#N)cc(=O)[nH]c2=O)CC1OC(C)=O` (centres undefined), the GI50 in the assay with T47D is > 100 µM (inactive).
Regarding `C[C@H]1C[C@H](C)c2ccccc2N(C)/C1=N\c1ccccc1`, the GI50 in the assay with T47D was 32.8 µM (inactive).
`O=C1Nc2ccccc2C1Cc1ccc([N+](=O)[O-])cc1` (centres undefined): the GI50 with T47D is > 100 µM (inactive).
As for `Brc1cccc(Nc2nc(-c3cccs3)nc3ccc(Br)cc23)c1`, the GI50 in the assay on T47D is 9.89 µM (inactive).
For the compound `O=C1/C(=C\c2ccc(Cl)cc2)N=C(c2ccccc2)N1n1c(=O)cn[nH]c1=S`, in the assay on T47D, the GI50 is 13.5 µM (inactive).
Still for that read-out and setting: under `N=C(N)NCCN1CCCCCc2ccccc21` stands > 10 µM (inactive).
For the compound `OCCc1cnco1`, the GI50 with LXFL 529 was > 100 µM (inactive); in the assay on DMS-114 it was > 100 µM (inactive); in the assay on HOP-18 it was > 100 µM (inactive); in the assay with SNB-78, > 100 µM (inactive); in the assay on DMS-273 it was 63.8 µM (inactive); in the assay with DLD-1 it was > 100 µM (inactive).
Consider `Cc1cn2c(/C=C3/C(=O)Nc4cccc(Cl)c43)c(Cl)nc2s1`, for which the GI50 in the assay with T47D was > 100 µM (inactive).
As for `CC1(C)CC(/C=C2/OC(=O)c3ccccc32)=C(C(N)=O)C(=O)O1`, the GI50 with LXFL 529, in the assay with DMS-114, in the assay on XF498, in the assay with SNB-78, with DMS-273 and in the assay with DLD-1 was > 100 µM (inactive) throughout.
As to `CC1(C)C(CCO)CC1n1ccc(=O)[nH]c1=O` (centres undefined), the GI50 in the assay with T47D was > 100 µM (inactive).
With `N#Cc1c2ccc([N+](=O)[O-])cc2c(=O)n2c1sc1ccccc12`, the GI50 in the assay on T47D was 14.8 µM (inactive).
Regarding `O=C(Nc1nn(C(=O)c2cccnc2)c(=O)s1)c1ccc(Cl)cc1`, the GI50 in the assay with T47D is 27 µM (inactive).
As to `COC(=O)Cc1cc(=O)n2c3ccccc3n(C)c2c1C#N`, the GI50 in the assay on DMS-114, in the assay on XF498, with SNB-78, in the assay with DMS-273 and in the assay with DLD-1 was > 100 µM (inactive) in each case.
As for `O=C(c1cc(Cl)cc(Cl)c1)N(C(=O)N1CCN(c2ccccc2)CC1)c1ccccc1`, in the assay on T47D, the GI50 is 18.1 µM (inactive).
Still for that read-out and setting: under `CCn1c(SCc2nnc(Nc3ccccc3)s2)nc2ccccc2c1=O` stands 5.57 µM (inactive).
Still for that read-out and setting: next, `O=C(Sc1c(-c2ccccc2)c(=O)n(-c2ccccc2)c(=S)n1-c1ccccc1)c1ccccc1`: 71.1 µM (inactive); `CC1OC2=N[C@@H]1C(=O)N[C@@H](C(C)C)C1=N[C@H](C(=O)N[C@@H](C(C)C)C3=N[C@H](C(=O)N[C@@H](C(C)C)C4=N[C@H](C(=O)N[C@H]2C(C)C)C(C)O4)C(C)O3)C(C)O1` (some centres undefined): > 10 µM (inactive).
`C=CC1(C)OC2(CCN(C(=O)OCC)CC2)OC1C` (centres undefined): in the assay with T47D, the GI50 was > 100 µM (inactive).
Take `COC(=O)c1ccccc1C1CN=NC12Cc1ccc3c(c1C2=O)CCC3` (centres undefined): in the assay on T47D, the GI50 is 19.2 µM (inactive).
As for `CCOC(=O)c1nc2cc(C(F)(F)F)ccc2nc1Oc1ccc(OC)cc1`, the GI50 with T47D was > 100 µM (inactive).
In the case of `CN(C)CCNC(=O)c1cccc2nc3cc(Cl)ccc3nc12`, the GI50 in the assay with LXFL 529 is 2.14 µM (inactive); in the assay on DMS-114 it was 1.83 µM (inactive); in the assay with HOP-18 it was 17.5 µM (inactive); in the assay with SNB-78, 2.65 µM (inactive); in the assay with DMS-273, 1.98 µM (inactive); in the assay with DLD-1, 2.68 µM (inactive).
Regarding `COC(=O)C(Cc1c[nH]c2ccccc12)NP(=O)(O)OCC1OC(n2cc(Br)c(=O)[nH]c2=O)CC1O` (centres undefined), in the assay on T47D, the GI50 is > 100 µM (inactive).
With `COc1cc(S(=O)(=O)Nc2ccc(-c3csc(N4C(=O)CSC4c4ccccc4)n3)cc2)ccc1Cl` (centres undefined), the GI50 with T47D is 16.3 µM (inactive).
Still for that read-out and setting: under `Cc1ccc(N2C(N)=C(C#N)C(C#N)(C#N)C2c2ccccc2)cc1` (centres undefined) stands 5.74 µM (inactive).
Take `CC1(C)C2CCC13CS(=O)(=O)N1O[C@]13C(=O)O2` (some centres undefined): the GI50 in the assay with RXF 631, with LXFL 529, in the assay on DMS-114, with HOP-18, in the assay with SNB-78 and in the assay on DLD-1 was > 100 µM (inactive) throughout.
Regarding `O=[N+]([O-])c1nccn1CC(O)CN1CCCCC1` (centres undefined) [PIMONIDAZOLE], the GI50 with T47D was > 100 µM (inactive).
As for `c1ccc2c(c1)ccc1ncccc12`, in the assay with T47D, the GI50 is > 100 µM (inactive).
As for `O=C1C(=c2cc3c(c4ccccc24)=NC24CCCCC2C(c2ccccc2)C=C(c2ccccc2)N34)C(=O)c2ccccc21` (centres undefined), the GI50 with T47D was 3.48 µM (inactive).
For `COc1ccc2c(c1)CCC/C2=N\NS(=O)(=O)c1c(C)cc(C)cc1C`, the GI50 in the assay with T47D was 16.5 µM (inactive).
The same measure, in the same setting: next, `COC(=O)c1cc(C)ccc1/C=C1\Cc2cc(C)c(C)cc2C1=O`: > 100 µM (inactive).
`O=c1c2c(nc3[nH]ccn13)CCC2`: the GI50 in the assay with T47D is > 10 µM (inactive).
For the compound `COC(=O)C(=O)C(C(=O)C(=O)Nc1cc(C)ccc1C)c1nc2ccccc2nc1O` (centres undefined), in the assay with T47D, the GI50 was > 100 µM (inactive).
The same measure, in the same setting: under `CCOC(=O)c1cc2c3c(cc(OC)c2[nH]1)N(C(=O)OCC)CC3` stands > 100 µM (inactive); under `Cc1cccc2c1Oc1ccccc1C2NC(=O)c1ccc([N+](=O)[O-])cc1` (centres undefined), > 100 µM (inactive).
As to `COc1ccc(N2C(=O)[C@@H](N=[N+]=[N-])[C@@H]2[C@H]2COC(C)(C)O2)cc1`, the GI50 in the assay with LXFL 529, in the assay on DMS-114, in the assay with HOP-18, in the assay on SNB-78 and with DMS-273 was > 100 µM (inactive) each time.

The record behind these values is ChEMBL document CHEMBL1201862, “PubChem BioAssay data set” (2004).
